Source: US10183955B2, “Molecules for isolation of polyribosomes, ribosomes, uses and kits thereof” (Immagina Biotechnology S.r.l., priority 2015, dated 2019)

Assays:
IVTT euk-mix = assay: EGFP expression in IVTT euk-mix, Western blot; format: biochemical; conditions: 1 hour, 30° C., 2 μg plasmid, 50 μL IVTT euk-mix
Experimental: FIG. 10. Expression of the firefly luciferase and the Enhanced Green Fluorescent Protein (EGFP) in the presence of 3P. (a, top), Effect of 3P on luciferase protein expression. ε-Labeled biotinylated lysine-tRNAs is used to monitor the protein production by SDS-PAGE. (a, bottom), Histogram representing the relative quantification (density fold change) of the bands reported in the western blot (up), respect to the control (input, reaction mix without 3P). Reactions are carried out in a final volume of 50 μL of IVTT euk-mix. Error bars represent s.d. calculated from a duplicate experiment; (b, top-left), Scheme of the plasmid used for EGFP expression. Restriction sites used to clone the gene are reported. (b, top-right) The effect of 3P on EGFP expression monitored by Western Blot analysis. Reactions are performed in a final volume of 50 μL of IVTT euk-mix (up) or IVTT pro-mix (down). (b, bottom). Effect of 3P and 3PP on EGFP expression in a IVTT euk-mix.
FIG. 15. Isolation of actively translated GFP transcripts after in vitro expression of EGFP protein. (a, left) The two plasmids used for EGFP expression (pBluescript II KS+, Genscript; pPR-IBA2, IBA, #2-1391-000). […] The relative abundance is reported as 2^(39-Cq), where 39 are the number of cycles and Cq is the quantification cycle. […]

[1] = system: in vitro-cell free translation system (IVTT euk-mix); assay: In vitro cell-free expression of firefly luciferase (IVTT euk-mix), SDS-PAGE and luminescence; format: biochemical
Experimental: FIG. 9. Effect of 3P and puromycin on in vitro-cell free expression of the luciferase gene. Luciferase protein production in the presence of different concentrations of puromycin and 3P (left panel). The firefly luciferase is expressed in vitro (90 min) adding z-labeled biotinylated lysine-tRNAs to the reaction. After incubation with streptavidin-HRP, the protein is visualized by chemiluminescence.
To date, no structural data are available for puromycin binding in complex with the eukaryotic ribosome, while the bonding of a puromycin derivative in bacterial ribosome is well described^49. […] In particular, we tested the effect of 3P on an in vitro-cell free translation system (hereinafter called “IVTT euk-mix”: TNT Quick coupled Transcription/Translation System, Promega #L2881) using a firefly luciferase gene (Promega #L4741). […] After 90 minutes of incubation, we monitored the protein production by SDS-PAGE and luminescence assay (FIG. 9). […]
The luciferase translation efficiency was monitored by means of luminescence signal using the Bright-Glo™ Luciferase Assay System (Promega, E2610) and the Infinite 200 PRO reader (Tecan), according to the manufacturer's instruction. […]

Structure (SMILES) | effect on EGFP expression (free in solution) (IVTT euk-mix) | b of best fit y=A*exp(−x/b) of luciferase expression as a function of concentration (A=100) ([1]; concentrations 0, 0.01, 0.1, 1, 10 μM, n=3) | protein synthesis upon titration ([1]; firefly luciferase, 90 minutes, 0-10 μM)
COC(=O)C[C@](O)(CCC(C)(C)O)C(=O)O[C@@H]1C(OC)=C[C@]23CCCN2CCc2cc4c(cc2[C@H]13)OCO4 [harringtonine] | inhibitory effect |  | 
COc1ccc(C[C@H](N)C(=O)N[C@H]2[C@@H](O)[C@H](n3cnc4c(N(C)C)ncnc43)O[C@@H]2CO)cc1 [puromycin] |  | 0.020±0.003 | exponential decay of the protein synthesis
